Assays:
[1] = Phase I dose-escalating study, pharmacokinetics; assay type: in vivo
Source text: Open-label, dose-escalating, phase I trial of PM14 administered as a 3-hour infusion i.v. every 3 weeks (q3wk) in human patients (pts) with advanced solid tumors, adequate organ function and ECOG PS score of 0-1. Two schedules were explored: Schedule A (Day 1 [D1], Day 8 [D8]) and Schedule B (D1).
Secondary Endpoints • Safety: patients will be evaluable for safety if they have received at least one partial infusion of PM14. AEs will be graded according to the NCI-CTCAE v.4. Additionally, treatment-related discontinuations and treatment compliance (dose reduction, skipped doses and/or treatment delays due to AEs), will be described. • Pharmacokinetics: PK analyses will be evaluated in plasma and urine by standard non-compartmental analysis (compartmental modeling may be performed if appropriate). Plasma samples for PM14 PK analysis will be obtained in Cycle 1 from all patients, and also in Cycle 2 from patients treated during Step D of the CRM. In addition, the urine produced during Day 1 of Cycle 1 and Cycle 2 will be collected from patients treated during Step D of the CRM. • Pharmacogenetics: the presence or absence of PGt polymorphisms in genes relevant for PM14 disposition (distribution, metabolism and excretion) from a single blood sample collected at any time during the trial (but preferably at the same time as the pre-treatment PK sample on Day 1 of Cycle 1) will be assessed to explain individual variability in main PK parameters. • Pharmacogenomics: this exploratory analysis will be performed in those patients who sign the Informed Consent Form (ICF) for the PGx study. mRNA or protein expression levels of factors involved in DNA repair mechanisms, or related to the mechanism of action of PM14, will be evaluated from available tumor tissue samples obtained at diagnosis or relapse and in cell-free ctDNA. Their mutational status might also be analyzed, if relevant. Their correlation with the clinical response and outcome after treatment will be assessed. • Efficacy: patients will be evaluable for efficacy if they receive at least one complete infusion of PM14 and have at least one clinical or radiological tumor assessment as per RECIST v.1.1 or serum markers, or if they are considered to have failed treatment. Treatment failure will be defined as clinical deterioration, death due to PD or treatment discontinuation due to any treatment-related toxicity before any appropriate tumor assessments have been performed.

MEXF 276L (melanoma) = experiment: Propidium iodide monolayer cell proliferation assay, MEXF 276L; assay type: cell-based, human
Experimental: Cell proliferation assay: A modified propidium iodide (PI) based monolayer assay was used to assess the anti-cancer activity of the compounds (Dengler WA, Schulte J, Berger DP, Mertelsmann R, Fiebig HH, Anti-Cancer Drugs 1995, 6: 522-532). Briefly, cells were harvested from exponential phase cultures, counted and plated in 96 well flat-bottom microtiter plates at a cell density of 4,000 to 30,000 cells/well dependent on the cell line's growth rate. After a 24 h recovery period, to allow the cells to resume exponential growth, 10 μl of culture medium (4 control wells/cell line/plate) or of culture medium with test compounds were added. PM14 was applied at ten concentrations in half-log increments in duplicates up to 3.16 pM and treatment continued for four days. […] After an incubation period of 1-2 hours at room temperature, fluorescence (FU) was measured using the Enspire Multimode Plate Reader (excitation A=530 nm, emission A=620 nm) to quantify the amount of attached viable cells.
IC50 and IC70 values were calculated by 4 parameter non-linear curve fit using Oncotest Warehouse Software. […]
IC50 values were determined as described in Example 2, but using the following human cancer cell lines: • MEXF 276L (melanoma) • MEXF 462NL (melanoma) • MEXF 1341L (melanoma)

WM-266-4 (Melanoma) = experiment: MTT cell viability assay, WM-266-4; assay type: cell-based; conditions: Homo sapiens
Experimental: Cell viability assay: To assess the antiproliferative activity of the compounds a colorimetric assay based on 3-(4,5-Dimethylthiazol-2-yl)-2,5-diphenyltetrazolium bromide (MTT) reduction was used. […] An appropriate number of cells, to reach a final cell density in the assay ranging from 5,000 to 15,000 cells per well depending on the cell line, were seeded in 96-well plates and allowed to stand in culture medium for 24 h at 37° C. under 5% CO2 and 98% humidity. Then, compounds or DMSO in culture medium were added to reach a final volume of […] and the intended compound concentration in a range covering 10 serial 2/5 dilutions starting from […] (10 μg/mL for doxorubicin) in 1% (v/v) DMSO. At this point a set of “time zero control plates” treated with 1% (v/v) DMSO were processed with MTT as described below. The rest of the plates were incubated during 72 h under the aforementioned environmental conditions. […] Culture medium was then removed and 100 μL of neat DMSO added to each well to dissolve the formazan product into a coloured solution whose absorbance at 540 nm was finally measured in a PolarStar Omega microplate multilabel reader (BMG Labtech, Ortenberg, Germany). […]
GI50 values were determined as described in Example 1, but using the following human cancer cell line: • WM-266-4 (ATCC@ CRL-1676) (Melanoma) […]

Structure (SMILES): COc1c(C)cc2c(c1O)[C@@H]1[C@@H]3[C@@H]4SC[C@]5(N[C@H](CO)Cc6c5[nH]c5ccccc65)C(=O)OC[C@@H](c5c6c(c(C)c(OC(C)=O)c54)OCO6)N3[C@@H](O)[C@H](C2)N1C [PM14, ECUBECTEDIN]
- Vd ([1]; human, in vivo): 128 L
- clearance ([1]; human, in vivo): 98.3 mL/min
- half-life ([1]; human, in vivo, half-life): 16 h
- half-life ([1]; human, in vivo, terminal half-life, median (range)): 15.9 h
- administered dose recovered in urine ([1]; patients): Less than 1.6%
- distribution into peripheral tissues ([1]; patients): moderate
- hepatic extraction ratio ([1]; patients): low
- pharmacokinetics, dose linearity ([1]; tested doses 0.25-5.6 mg/rn^2): Linear pharmacokinetics
- IC70, μM (geometric mean) (MEXF 276L (melanoma)): 0.0003 µM
- IC50 (MEXF 276L (melanoma); Homo sapiens, MEXF276L, read-out: IC50, μM (geometric mean)): 0.0002 µM
- GI50 (WM-266-4 (Melanoma)): 1.94 nM
